Assays:
Type in all cases: cell-based
[1] = biological target: recombinant rat GluN1/GluN2C receptors (NR2C) (Rattus norvegicus (Rat), UniProt P35439+Q00961); experiment: Two-electrode voltage-clamp recordings, Xenopus laevis oocytes, NR2C; conditions: head prints IC50; method describes EC50 of potentiator
Protocol: (§1) Two-electrode voltage-clamp recordings were made from Xenopus laevis oocytes expressing recombinant rat GluN1/GluN2A, GluN1/GluN2B, GluN1/GluN2C, GluN1/GluN2D, GluA1, or GluK2 receptors following injection of 5-10 ng of cRNA synthesized according to manufacturers' protocols (Ambin, mMessage, mMachine). cDNAs used were rat GluN1-1a (GenBank accession numbers U11418 and U08261; hereafter GluN1), GluN2A (D13211), GluN2B (U11419), GluN2C (M91563), GluN2D (L31611), GluA1 (X17184), GluK2 (Z11548). The current under voltage-clamp was recorded during perfusion with recording solution containing (in mM) 90 NaCl, 1.0 KCl, 0.5 BaCl2, 0.005 EDTA, and 10 HEPES at pH 7.4 (23° C.). Glass micropipettes had resistances of 0.3-1.0 MS2 and were filled with 3.0 M KCl. The membrane potential was clamped at −40 mV during the experiment. Recordings were digitized at 10 Hz and analyzed off line. 20 mM stock solutions of test compounds in 100% DMSO were made and diluted to obtain the final concentration; final DMSO content was 0.05-0.5% (vol/vol). Oocytes expressing GluK2 homomeric receptors were first treated with 10 μM concanavalin A (10 minutes). NMDA receptor responses were obtained by challenging oocytes with 100 μM glutamate plus 30 μM glycine; GluA1 and GluK2 receptors responses were recorded during application of 100 μM glutamate. We recorded the response to 5-7 concentrations of test drug co-applied with glutamate and glycine in 5 or more oocytes obtained from two different frogs. […] N is the Hill slope and maximum is the response predicted for saturating concentration of potentiator.

[2] = biological target: recombinant rat GluN1/GluN2A receptors (NR2A) (Rattus norvegicus (Rat), UniProt P35439+Q00959); experiment: Two-electrode voltage-clamp recordings, Xenopus laevis oocytes, NR2A; conditions: current in the absence of compound = 100%, 100 μM glutamate plus 30 μM glycine, read-out: NR2A response
Protocol: as §1

[3] = biological target: recombinant rat GluN1/GluN2B receptors (NR2B) (Rattus norvegicus (Rat), UniProt P35439+Q00960); experiment: Two-electrode voltage-clamp recordings, Xenopus laevis oocytes, NR2B; conditions: current in the absence of compound = 100%, 100 μM glutamate plus 30 μM glycine, read-out: NR2B response
Protocol: as §1

[4] = biological target: recombinant rat GluN1/GluN2D receptors (NR2D) (Rattus norvegicus (Rat), UniProt P35439+Q62645); experiment: Two-electrode voltage-clamp recordings, Xenopus laevis oocytes, NR2D; conditions: current in the absence of compound = 100%, 100 μM glutamate plus 30 μM glycine, read-out: NR2D response
Protocol: as §1

[5] = biological target: recombinant rat GluN1/GluN2C receptors (NR2C) (Rattus norvegicus (Rat), UniProt Q00961); experiment: Two-electrode voltage-clamp recordings, Xenopus laevis oocytes, NR2C; conditions: at 100 uM; current in the absence of compound = 100%; 100 μM glutamate plus 30 μM glycine
Protocol: as §1

recombinant rat GluN1/GluN2D receptors (NR2D), sequence (Q62645 28-1323, other chains not shown): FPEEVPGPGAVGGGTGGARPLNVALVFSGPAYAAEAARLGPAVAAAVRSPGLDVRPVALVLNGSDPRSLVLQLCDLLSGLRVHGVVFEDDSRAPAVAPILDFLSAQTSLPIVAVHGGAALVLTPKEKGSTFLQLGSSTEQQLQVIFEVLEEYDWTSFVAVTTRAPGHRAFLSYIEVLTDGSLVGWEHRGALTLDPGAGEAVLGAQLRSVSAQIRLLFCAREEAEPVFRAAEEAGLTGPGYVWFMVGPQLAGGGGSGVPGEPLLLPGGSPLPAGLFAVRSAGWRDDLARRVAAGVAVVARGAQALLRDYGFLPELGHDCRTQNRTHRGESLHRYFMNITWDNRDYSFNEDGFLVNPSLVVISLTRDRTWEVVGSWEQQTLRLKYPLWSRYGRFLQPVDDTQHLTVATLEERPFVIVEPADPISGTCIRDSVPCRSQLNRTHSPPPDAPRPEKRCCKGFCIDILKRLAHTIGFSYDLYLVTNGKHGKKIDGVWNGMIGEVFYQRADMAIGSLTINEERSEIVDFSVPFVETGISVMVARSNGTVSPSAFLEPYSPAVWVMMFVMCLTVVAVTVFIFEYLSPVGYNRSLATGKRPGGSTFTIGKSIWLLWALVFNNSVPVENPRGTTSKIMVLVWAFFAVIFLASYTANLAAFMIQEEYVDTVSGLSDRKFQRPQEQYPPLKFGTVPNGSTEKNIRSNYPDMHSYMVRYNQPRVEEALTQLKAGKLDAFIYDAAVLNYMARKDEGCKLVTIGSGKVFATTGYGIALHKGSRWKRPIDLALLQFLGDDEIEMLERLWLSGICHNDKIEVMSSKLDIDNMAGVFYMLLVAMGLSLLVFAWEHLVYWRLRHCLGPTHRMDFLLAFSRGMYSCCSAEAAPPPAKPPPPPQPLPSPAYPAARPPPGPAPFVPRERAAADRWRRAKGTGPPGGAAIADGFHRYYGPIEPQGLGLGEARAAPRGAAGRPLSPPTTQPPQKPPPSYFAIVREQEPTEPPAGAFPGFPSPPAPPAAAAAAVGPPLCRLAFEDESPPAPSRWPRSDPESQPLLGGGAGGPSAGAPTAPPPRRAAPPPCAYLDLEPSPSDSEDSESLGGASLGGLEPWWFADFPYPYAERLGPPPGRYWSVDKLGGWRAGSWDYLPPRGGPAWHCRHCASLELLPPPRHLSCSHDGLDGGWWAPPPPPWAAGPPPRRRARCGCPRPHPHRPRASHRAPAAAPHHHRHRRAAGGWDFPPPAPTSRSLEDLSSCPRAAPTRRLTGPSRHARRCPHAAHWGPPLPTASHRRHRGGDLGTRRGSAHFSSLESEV
recombinant rat GluN1/GluN2A receptors (NR2A), sequence (Q00959 23-1464, other chains not shown): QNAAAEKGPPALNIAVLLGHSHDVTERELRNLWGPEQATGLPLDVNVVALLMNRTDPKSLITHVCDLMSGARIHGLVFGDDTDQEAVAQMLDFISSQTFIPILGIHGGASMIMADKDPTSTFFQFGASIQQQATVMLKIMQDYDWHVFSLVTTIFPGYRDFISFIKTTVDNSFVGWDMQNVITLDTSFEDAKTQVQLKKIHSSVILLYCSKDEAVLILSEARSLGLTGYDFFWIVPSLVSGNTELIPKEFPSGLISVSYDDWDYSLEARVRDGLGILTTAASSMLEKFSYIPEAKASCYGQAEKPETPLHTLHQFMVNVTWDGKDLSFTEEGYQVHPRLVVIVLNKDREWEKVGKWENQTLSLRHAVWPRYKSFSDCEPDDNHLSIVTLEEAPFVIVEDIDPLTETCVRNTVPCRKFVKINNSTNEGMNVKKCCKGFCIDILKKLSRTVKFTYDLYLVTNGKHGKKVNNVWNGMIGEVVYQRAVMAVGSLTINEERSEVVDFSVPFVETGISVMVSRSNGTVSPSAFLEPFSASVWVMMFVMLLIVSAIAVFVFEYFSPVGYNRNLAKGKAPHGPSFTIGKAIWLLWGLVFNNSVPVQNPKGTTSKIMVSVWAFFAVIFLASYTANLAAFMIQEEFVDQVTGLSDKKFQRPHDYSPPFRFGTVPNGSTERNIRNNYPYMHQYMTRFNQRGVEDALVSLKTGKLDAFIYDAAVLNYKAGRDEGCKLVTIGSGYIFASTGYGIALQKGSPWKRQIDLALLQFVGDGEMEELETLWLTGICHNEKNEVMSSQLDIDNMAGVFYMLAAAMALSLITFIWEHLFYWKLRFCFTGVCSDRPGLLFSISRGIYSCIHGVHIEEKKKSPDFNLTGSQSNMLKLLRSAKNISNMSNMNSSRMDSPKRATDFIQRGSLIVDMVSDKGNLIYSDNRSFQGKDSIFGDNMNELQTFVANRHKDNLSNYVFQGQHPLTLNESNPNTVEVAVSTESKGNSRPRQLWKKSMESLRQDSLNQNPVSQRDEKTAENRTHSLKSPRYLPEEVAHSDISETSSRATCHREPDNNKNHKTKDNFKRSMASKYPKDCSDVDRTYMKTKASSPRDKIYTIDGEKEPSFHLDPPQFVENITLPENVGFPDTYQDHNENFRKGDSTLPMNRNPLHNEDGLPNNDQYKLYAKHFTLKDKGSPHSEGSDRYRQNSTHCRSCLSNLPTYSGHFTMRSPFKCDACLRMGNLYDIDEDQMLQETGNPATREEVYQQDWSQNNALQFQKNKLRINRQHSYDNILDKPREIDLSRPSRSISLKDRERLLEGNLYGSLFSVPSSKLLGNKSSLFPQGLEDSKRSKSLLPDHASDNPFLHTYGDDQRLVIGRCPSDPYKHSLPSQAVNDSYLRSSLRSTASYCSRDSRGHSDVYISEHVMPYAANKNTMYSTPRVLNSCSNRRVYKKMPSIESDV
recombinant rat GluN1/GluN2C receptors (NR2C) (Rattus norvegicus (Rat), UniProt P35439+Q00961), sequence (Q00961 20-1237, other chains not shown): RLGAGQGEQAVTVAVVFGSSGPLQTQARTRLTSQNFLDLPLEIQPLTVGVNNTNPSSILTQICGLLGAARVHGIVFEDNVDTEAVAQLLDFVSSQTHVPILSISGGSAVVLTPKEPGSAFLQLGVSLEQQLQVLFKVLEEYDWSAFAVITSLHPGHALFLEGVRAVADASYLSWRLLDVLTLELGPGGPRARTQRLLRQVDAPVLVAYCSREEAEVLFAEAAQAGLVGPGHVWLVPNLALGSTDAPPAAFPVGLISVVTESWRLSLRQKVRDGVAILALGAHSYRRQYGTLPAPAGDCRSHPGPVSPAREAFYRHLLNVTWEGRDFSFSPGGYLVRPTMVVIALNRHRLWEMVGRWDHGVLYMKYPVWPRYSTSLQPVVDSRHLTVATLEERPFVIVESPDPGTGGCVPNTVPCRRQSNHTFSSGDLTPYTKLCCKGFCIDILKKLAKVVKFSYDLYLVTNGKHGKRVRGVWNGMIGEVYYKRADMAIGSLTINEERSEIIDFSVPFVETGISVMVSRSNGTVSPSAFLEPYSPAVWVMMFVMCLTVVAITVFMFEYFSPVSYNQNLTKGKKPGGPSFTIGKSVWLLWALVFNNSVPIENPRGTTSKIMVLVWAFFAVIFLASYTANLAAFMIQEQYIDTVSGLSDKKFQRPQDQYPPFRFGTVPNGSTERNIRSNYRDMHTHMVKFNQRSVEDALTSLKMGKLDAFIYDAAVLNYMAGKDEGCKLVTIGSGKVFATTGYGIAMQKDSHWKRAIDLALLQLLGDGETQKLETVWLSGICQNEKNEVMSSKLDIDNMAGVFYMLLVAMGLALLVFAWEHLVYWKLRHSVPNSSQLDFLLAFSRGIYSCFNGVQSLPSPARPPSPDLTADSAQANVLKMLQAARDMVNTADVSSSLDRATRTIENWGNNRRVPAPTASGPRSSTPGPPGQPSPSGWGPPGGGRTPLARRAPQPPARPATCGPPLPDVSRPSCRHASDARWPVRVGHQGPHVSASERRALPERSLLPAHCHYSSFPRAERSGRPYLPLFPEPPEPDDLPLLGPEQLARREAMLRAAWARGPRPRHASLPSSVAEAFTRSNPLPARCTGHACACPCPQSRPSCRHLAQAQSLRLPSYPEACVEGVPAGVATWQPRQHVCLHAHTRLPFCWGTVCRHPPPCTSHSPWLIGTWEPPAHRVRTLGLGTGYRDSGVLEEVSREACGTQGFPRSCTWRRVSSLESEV
recombinant rat GluN1/GluN2C receptors (NR2C) (Rattus norvegicus (Rat), UniProt Q00961), sequence (Q00961 20-1237, other chains not shown): as above

SMILES	EC50 (potentiation) [1] [µM]	activity at 100 µM [2] [%]	activity at 100 µM [3] [%]	activity at 100 µM [4] [%]	NR2C response [5] [% response at 100 uM]
O=C(C1=C(O)C(=O)N(CCc2c[nH]c3ccccc23)C1c1cccs1)c1cccnc1 (centres unmarked)	12	43	71	73	
COC(=O)c1ccc(C2C(C(C)=O)=C(O)C(=O)N2CCc2c[nH]c3ccccc23)c(OC)c1 (centres unmarked)	20	99	79	99	
CCOC(=O)c1ccc(C2C(C(=O)c3ccncc3)=C(O)C(=O)N2CCc2c[nH]c3cc(C)ccc23)cc1 (centres unmarked)	9	99	77	73	
COC(=O)c1ccc(C2C(C(C)=O)=C(O)C(=O)N2CCc2c[nH]c3ccccc23)c(O)c1 (centres unmarked)	15	102	77	79	
CCOC(=O)c1ccc(C2C(C(C)=O)=C(O)C(=O)N2CCc2c[nH]c3ccccc23)cc1 (centres unmarked)	15	96	75	79	
COC(=O)c1ccc(C2C(C(=O)c3ccncc3)=C(O)C(=O)N2CCc2c[nH]cn2)cc1 (centres unmarked)		97	91	90	84
COC(=O)c1ccc(C2C(C(=O)c3ccncc3)=C(O)C(=O)N2CCc2ccncc2)cc1 (centres unmarked)		103	94	95	97
CCOC(=O)c1ccc(C2C(C(C)=O)=C(O)C(=O)N2CCc2c(C)[nH]c3ccccc23)cc1 (centres unmarked)	12	89	79	73	

Further lines, results first:

EC50 (potentiation) [1] [µM]	activity at 100 µM [2] [%]	activity at 100 µM [3] [%]	activity at 100 µM [4] [%]	NR2C response [5] [% response at 100 uM]	SMILES
11					COC(=O)c1ccc(C2C(C(=O)c3ccncc3)=C(O)C(=O)N2CCc2cccc3ccccc23)cc1 (centres unmarked)
14	80	37	64		COC(=O)c1ccc(C2C(C(=O)c3cccnc3)=C(O)C(=O)N2CCc2c[nH]c3cc(F)ccc23)cc1 (centres unmarked)
7	74	61	69		CCOC(=O)c1ccc(C2C(C(=O)c3cccnc3)=C(O)C(=O)N2CCc2c[nH]c3cc(C)ccc23)cc1 (centres unmarked)
8	78	72	72		COC(=O)c1ccc(C2C(C(=O)c3ccncc3)=C(O)C(=O)N2CCc2c[nH]c3ccccc23)cc1 (centres unmarked)
4	83	43	61		COC(=O)c1ccc(C2C(C(=O)c3cccnc3)=C(O)C(=O)N2CCc2c[nH]c3cc(Cl)ccc23)cc1 (centres unmarked)
26	68	72	115		COC(=O)c1ccc(C2C(C(=O)c3ccccc3Cl)=C(O)C(=O)N2CCc2c[nH]c3ccccc23)cc1 (centres unmarked)
4	91	66	64		COC(=O)c1ccc(C2C(C(=O)c3cccnc3)=C(O)C(=O)N2CCc2c[nH]c3cc(C)ccc23)cc1 (centres unmarked)
5	76				COC(=O)c1ccc(C2C(C(=O)c3cccc(O)c3)=C(O)C(=O)N2CCc2c[nH]c3ccccc23)cc1 (centres unmarked)

— US9737522B2, “NMDA receptor modulators and uses related thereto” (EMORY UNIVERSITY, priority 2012, dated 2017)
